# Assay results published in patent US12577247B2 (BUGWORKS RESEARCH, INC., priority 2021, dated 2026).
# Columns and labels:
# A2B receptor [1] = biological target: T1, A2B receptor (Homo sapiens, UniProt P29275); assay: A2bR antagonism IC50, cAMP TR-FRET (Lance Ultra) in HEK-293 cells, NECA as agonist; assay type: cell-based; parameters: host or cells: HEK-293; details: HEK-293 cells expressing A2B receptor; agonist NECA 30 nM (EC90); inhibition of cAMP
# T1 sequence (P29275 1-332): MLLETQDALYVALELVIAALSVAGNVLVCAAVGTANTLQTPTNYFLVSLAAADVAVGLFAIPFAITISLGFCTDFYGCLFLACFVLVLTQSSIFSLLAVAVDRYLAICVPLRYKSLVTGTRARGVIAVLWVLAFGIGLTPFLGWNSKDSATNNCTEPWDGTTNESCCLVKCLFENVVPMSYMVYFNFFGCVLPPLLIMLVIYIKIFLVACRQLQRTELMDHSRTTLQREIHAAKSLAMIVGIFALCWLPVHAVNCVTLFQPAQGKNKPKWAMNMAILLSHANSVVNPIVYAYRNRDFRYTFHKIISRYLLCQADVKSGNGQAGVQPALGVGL
# Description: Adenosine A2A receptors and Adenosine A2B receptors induce the production of cAMP when activated/stimulated by an agonist like adenosine or 5′-(N-Ethylcarboxamido) adenosine (NECA). A Time-Resolved Fluorescence Energy Transfer (TR-FRET) assay was used to show the inhibition of this cAMP production in HEK cells upon treatment with compounds of the Formula I of the present disclosure.
# HEK-293 cells expressing A2A receptor (#ES-011-C) or A2B receptor (#ES 013-C) were obtained from PerkinElmer. Cells were maintained in DMEM medium supplemented with 10% FBS and 200 μg/mL of G418 at 37° C. and 5% CO2. The cells were cultured in antibiotic free medium for a period of 16-20 hours prior to the assay. All subsequent steps of the assay are performed at room temperature (22-24° C.). The cells were harvested at about 80% confluency by gentle flushing with PBS, recovered by centrifugation and resuspended in stimulation buffer at the concentration of 5.0×10^6 cells/mL.
# The assays were conducted in a stimulation buffer containing 1×DMEM, 5 mM HEPES, 0.1% BSA stabilizer and 20-30 μM Rolipram. Serial dilutions of compounds were made in stimulation buffer to achieve a final concentration of high micromolar (10 μM to 0.08 nM) in the reaction volume of 10 μL. The total reaction volume was 10 μL (5 μL of cells, 2.5 μL of antagonist and 2.5 μL of agonist). The stimulation was ended, and the reaction completed by adding 5 μL of 4× Eu-cAMP tracer working solution and 5 μL of 4× ULight-anti-cAMP working solution. The TR-FRET signal was measured after 1-hour incubation using a Tecan M1000 reader.
# A2A receptor = biological target: T2, A2A receptor (Homo sapiens, UniProt P29274); assay: A2aR antagonism IC50, cAMP TR-FRET in HEK-293 cells, high concentration of adenosine (30 μM); assay type: cell-based; details: HEK-293 cells expressing A2A receptor; agonist adenosine 30 μM; 2% HSA; inhibition of cAMP; read-out: A2AR IC50 (nM) (@30 μM Adenosine);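 also: compounds added 10 min before adenosine, then 30 min stimulation at room temperature in buffer with 100 µM rolipram and 30 µM EHNA, signal read 1 h after detection reagents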
# T2 construct: host or cells: HEK-293
# A2B receptor [2] = biological target: T1, A2B receptor; assay: A2bR antagonism IC50, cAMP TR-FRET in HEK-293 cells, high concentration of adenosine (30 μM); details: A2BR IC50 (nM) (@30 μM Adenosine), HEK-293 cells expressing A2B receptor; agonist adenosine 30 μM; 2% HSA; inhibition of cAMP;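 also: compounds preincubated 10 min with cells, then adenosine stimulation 30 min at room temperature in buffer with Rolipram 100 µM and EHNA 30 µM, TR-FRET read after 1 h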
# Protocol: A Time-Resolved Fluorescence Energy Transfer (TR-FRET) assay was used to show the inhibition of this cAMP production in HEK cells upon treatment with compounds of the Formula I of the present disclosure.
# HEK-293 cells expressing A2A receptor (#ES-011-C) or A2B receptor (#ES 013-C) were obtained from PerkinElmer. Cells were maintained in DMEM medium supplemented with 10% FBS and 200 μg/mL of G418 at 37° C. and 5% CO2. The cells were cultured in antibiotic free medium for a period of 16-20 hours prior to the assay. All subsequent steps of the assay are performed at room temperature (22-24° C.). […] About 1500 cells per well were pre-incubated for 10 minutes with the compounds of the present invention before adding the agonist Adenosine at a high concentration (30 μM) for a total stimulation time of 30 minutes. […] The assays were conducted in a stimulation buffer containing 1×DMEM, 5 mM HEPES, 2% Human serum albumin (HSA), 100 μM Rolipram and 30 μM erythro-9-(2-hydroxy-3-nonyl) adenine (EHNA). Serial dilutions of compounds were made in stimulation buffer to achieve a final concentration of high micromolar in a reaction volume of 10 μL. The total reaction volume was 10 μL (5 μL of cells, 2.5 μL of antagonist and 2.5 μL of agonist). […] The stimulation was ended, and the reaction completed by adding 5 μL of 4× Eu-cAMP tracer working solution and 5 μL of 4× ULight-anti-cAMP working solution. The TR FRET signal was measured after 1-hour incubation using a Tecan M1000 or a PerkinElmer Victor Nivo plate reader.
# T2 sequence (P29274 whole entry): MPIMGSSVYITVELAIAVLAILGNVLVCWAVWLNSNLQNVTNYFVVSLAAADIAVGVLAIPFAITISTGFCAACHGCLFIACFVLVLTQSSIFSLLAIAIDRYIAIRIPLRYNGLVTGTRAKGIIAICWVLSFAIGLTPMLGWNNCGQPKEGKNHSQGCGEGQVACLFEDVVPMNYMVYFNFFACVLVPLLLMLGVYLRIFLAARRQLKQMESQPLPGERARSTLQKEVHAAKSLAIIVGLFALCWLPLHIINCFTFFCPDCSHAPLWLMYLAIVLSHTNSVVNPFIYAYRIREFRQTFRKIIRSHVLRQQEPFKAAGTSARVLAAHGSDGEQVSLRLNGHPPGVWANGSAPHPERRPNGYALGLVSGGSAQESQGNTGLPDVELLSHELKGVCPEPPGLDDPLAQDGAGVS
SMILES,IC50 (A2B receptor [1]) [nM],IC50 (A2A receptor) [nM],IC50 (A2B receptor [2]) [nM]
"CCc1c(C)nn2c(N)c(C#N)c(NC(C)Cc3cccc(C)n3)nc12 (racemic) [Example 24, 7-Amino-3-ethyl-2-methyl-5-((1-(6-methylpyridin-2-yl)propan-2-yl)amino) pyrazolo[1,5-a]pyrimidine-6-carbonitrile]",2.5,,
"Cc1nn2c(N)c(C#N)c(NCCc3ccn(CC4CC(O)C4)n3)nc2c1Cl (racemic) [Example 82, (+−)-7-amino-3-chloro-5-((2-(1-((3-hydroxycyclobutyl)methyl)-1H-pyrazol-3-yl)ethyl)amino)-2-methylpyrazolo[1,5-a]pyrimidine-6-carbonitrile]",7,110,2340
"Cc1cccc(CC(C)Nc2nc3c(C)c(C)nn3c(N)c2C#N)n1 (single isomer, unassigned) [Example 15, 7-amino-2,3-dimethyl-5-{[1-(6-methylpyridin-2-yl)propan-2-yl]amino}pyrazolo[1,5-a]pyrimidine-6-carbonitrile]",102,,
"Cc1nn2c(N)c(C#N)c(NCc3cccc(C(C)(C)O)n3)nc2c1C [Example 9, 7-amino-5-({[6-(2-hydroxypropan-2-yl)pyridin-2-yl]methyl}amino)-2,3-dimethylpyrazolo[1,5-a] pyrimidine-6-carbonitrile]",1130,,
"CCc1c(C)nn2c(N)c(C#N)c(NCCc3cccc(OC)n3)nc12 [Example 20, 7-Amino-3-ethyl-5-((2-(6-methoxypyridin-2-yl)ethyl)amino)-2-methylpyrazolo [1,5-a]pyrimidine-6-carbonitrile]",4,,
"Cc1cccc(CCNc2nc3c(CC(C)C)c(C)nn3c(N)c2C#N)n1 [Example 27, 7-amino-3-(isopropylmethyl)-2-methyl-5-((2-(6-methylpyridin-2-yl)ethyl)amino) pyrazolo[1,5-a]pyrimidine-6-carbonitrile]",654,,
CCc1c(C)nn2c(N)c(C#N)c(NCCc3ccn(C)n3)nc12 [Example 30],4.5,,
"CCc1c(C(F)F)nn2c(N)c(C#N)c(NCCc3cccc(C4CC4CO)n3)nc12 (stereo not shown) [Example 59, 7-amino-2-(difluoromethyl)-3-ethyl-5-((2-(6-(2-(hydroxymethyl)cyclopropyl)pyridin-2-yl)ethyl)amino)pyrazolo[1,5-a]pyrimidine-6-carbonitrile]",9,1080,
"CCc1c(C)nn2c(N)c(C#N)c(NCCc3cccc(C4CC4CO)n3)nc12 (stereo not shown) [Example 60, 7-amino-3-ethyl-5-((2-(6-(2-(hydroxymethyl)cyclopropyl)284yridine-2-yl)ethyl)amino)-2-methylpyrazolo[1,5-a]pyrimidine-6-carbonitrile]",0.94,211,
"CCc1c(C)nn2c(N)c(C#N)c(NCCc3ccn(CC4(CO)CC4)n3)nc12 [Example 63, 7-amino-3-ethyl-5-((2-(1-((1-(hydroxymethyl)cyclopropyl)methyl)-1H-pyrazol-3-yl)ethyl)amino)-2-methylpyrazolo[1,5-a]pyrimidine-6-carbonitrile]",7.3,810,2800
"Cc1cncc(CCNc2nc3c(C)c(C)nn3c(N)c2C#N)n1 [Example 140, 7-amino-2,3-dimethyl-5-((2-(6-methylpyrazin-2-yl)ethyl)amino) pyrazolo[1,5-a]pyrimidine-6-carbonitrile]",,6020,> 15000
"Cc1nn2c(N)c(C#N)c(NCCc3cccn(CCCN)c3=O)nc2c1C [Example 141, 7-amino-5-((2-(1-(3-aminopropyl)-2-oxo-1,2-dihydropyridin-3-yl)ethyl)amino)-2,3-dimethylpyrazolo[1,5-a]pyrimidine-6-carbonitrile]",,679,4750
"CCc1c(C)nn2c(N)c(C#N)c(NCCc3cccn(CCSC)c3=O)nc12 [Example 142, 7-amino-3-ethyl-2-methyl-5-((2-(1-(2-(methylthio)ethyl)-2-oxo-1,2-dihydropyridin-3-yl)ethyl)amino)pyrazolo[1,5-a]pyrimidine-6-carbonitrile]",,141,1660
"CCc1c(C)nn2c(N)c(C#N)c(NCCc3cccn(CCCNC(C)=O)c3=O)nc12 [Example 145, N-(3-(3-(2-((7-amino-6-cyano-3-ethyl-2-methylpyrazolo[1,5-a]pyrimidin-5-yl)amino)ethyl)-2-oxopyridin-1(2H)-yl)propyl) acetamide]",,294,1130
"CCc1c(C)nn2c(N)c(C#N)c(NCCc3ccn(C4(CN)CC4)n3)nc12 [Example 146, 7-amino-5-((2-(1-(1-(aminomethyl)cyclopropyl)-1H-pyrazol-3-yl)ethyl)amino)-3-ethyl-2-methylpyrazolo[1,5-a]pyrimidine-6-carbonitrile]",,255,2470
"CCc1c(C)nn2c(N)c(C#N)c(NCCc3ccn(C4(CNC(C)=O)CC4)n3)nc12 [Example 147, N-((1-(3-(2-((7-amino-6-cyano-3-ethyl-2-methylpyrazolo[1,5-a]pyrimidin-5-yl)amino)ethyl)-1H-pyrazol-1-yl)cyclopropyl)methyl) acetamide]",,363,9080
"CCc1c(C)nn2c(N)c(C#N)c(NCCc3ccn(C4(CCN)CC4)n3)nc12 [Example 148, 7-amino-5-((2-(1-(1-(2-aminoethyl)cyclopropyl)-1H-pyrazol-3-yl)ethyl)amino)-3-ethyl-2-methylpyrazolo[1,5-a] pyrimidine-6-carbonitrile]",,161,2740
"CCc1c(C)nn2c(N)c(C#N)c(NCCc3ccn(C4(CCNC(C)=O)CC4)n3)nc12 [Example 149, N-(2-(1-(3-(2-((7-amino-6-cyano-3-ethyl-2-methylpyrazolo[1,5-a]pyrimidin-5-yl)amino)ethyl)-1H-pyrazol-1-yl)cyclopropyl)ethyl) acetamide]",,43,988
"CCc1c(C)nn2c(N)c(C#N)c(NCCc3cccc(OCCO)n3)nc12 [Example 150, 7-amino-3-ethyl-5-((2-(6-(2-hydroxyethoxy)pyridin-2-yl)ethyl)amino)-2-methylpyrazolo[1,5-a] pyrimidine-6-carbonitrile]",,1150,1630
"Cc1nn2c(N)c(C#N)c(NCCc3ccn(C4(CCN)CC4)n3)nc2c1Cl [Example 151, 7-amino-5-((2-(1-(1-(2-aminoethyl)cyclopropyl)-1H-pyrazol-3-yl)ethyl)amino)-3-chloro-2-methylpyrazolo[1,5-a]pyrimidine-6-carbonitrile]",,95,4610
"Cc1nn2c(N)c(C#N)c(NCCc3cccc(CCO)n3)nc2c1C [Example 152, 7-amino-5-((2-(6-(2-hydroxyethyl)pyridin-2-yl)ethyl)amino)-2,3-dimethylpyrazolo[1,5-a] pyrimidine-6-carbonitrile]",,209,1790
"CCc1c(C)nn2c(N)c(C#N)c(NCCc3cccn(CCCSC)c3=O)nc12 [Example 153, 7-amino-3-ethyl-2-methyl-5-((2-(1-(3-(methylthio)propyl)-2-oxo-1,2-dihydropyridin-3-yl)ethyl)amino)pyrazolo[1,5-a]pyrimidine-6-carbonitrile]",,195,1190
"CCCc1c(C)nn2c(N)c(C#N)c(NCCc3cccn(CCCO)c3=O)nc12 [Example 156, 7-amino-5-((2-(1-(3-hydroxypropyl)-2-oxo-1,2-dihydropyridin-3-yl)ethyl)amino)-2-methyl-3-propylpyrazolo[1,5-a]pyrimidine-6-carbonitrile]",,750,2950
"CCCc1c(C)nn2c(N)c(C#N)c(NCCc3cccc(CO)n3)nc12 [Example 157, 7-amino-5-((2-(6-(hydroxymethyl)397yridine-2-yl)ethyl)amino)-2-methyl-3-propylpyrazolo[1,5-a]pyrimidine-6-carbonitrile]",,1670,2930
"CCCc1c(C)nn2c(N)c(C#N)c(NCCc3ccn(C4(CO)CC4)n3)nc12 [Example 158, 7-amino-5-((2-(1-(1-(hydroxymethyl)cyclopropyl)-1H-pyrazol-3-yl)ethyl)amino)-2-methyl-3-propylpyrazolo[1,5-a]pyrimidine-6-carbonitrile]",,805,3350
"CCc1c(C)nn2c(N)c(C#N)c(NCCc3ccn(CCCSC)n3)nc12 [Example 161, 7-amino-3-ethyl-2-methyl-5-((2-(1-(3-(methylthio)propyl)-1H-pyrazol-3-yl)ethyl)amino)pyrazolo[1,5-a]pyrimidine-6-carbonitrile]",,2770,3970
"CCCc1c(C)nn2c(N)c(C#N)c(NCCc3cccc(C)n3)nc12 [Example 164, 7-amino-2-methyl-5-((2-(6-methylpyridin-2-yl)ethyl)amino)-3-propylpyrazolo[1,5-a]pyrimidine-6-carbonitrile]",,8260,> 15000
"CCc1c(C)nn2c(N)c(C#N)c(NCCc3cccc(CO[C@@H]4CCOC4)n3)nc12 [Example 166, (R)-7-amino-3-ethyl-2-methyl-5-((2-(6-(((tetrahydrofuran-3-yl)oxy)methyl)pyridine-2-yl)ethyl)amino) pyrazolo[1,5-a]pyrimidine-6-carbonitrile]",,1420,466
